# According to publication PMC10692473 (Acta Pharmaceutica Sinica. B, 2023):
# Experiments:
# [1] = system: Salmonella typhimurium TA98 and TA100 strains; assay: Mini-Ames test; assay type: cell-based
# S. aureus MSSA15-2 = assay: Antibacterial spectrum; details: Staphylococcus aureus, MSSA152
# S. aureus Topo IV = S. aureus Topo IV (Staphylococcus aureus, UniProt P0C1S7); assay: Topo IV inhibitory assay; assay type: biochemical
# [2] = Pharmacokinetics study on beagle dogs; assay type: in vivo
# S. aureus (ATCC29213) [3] = assay: Spontaneous drug resistance frequency; assay type: cell-based; details: S. aureus ATCC29213, 4 × MIC
# P. aeruginosa ATCC27853 = assay: Antibacterial spectrum; details: Pseudomonas aeruginosa
# S. aureus (ATCC29213) [4] = assay: Antibacterial assay; details: Staphylococcus aureus, ATCC29213, read-out: MIC S. aureus (ATCC29213)
# S. aureus gyrase = S. aureus gyrase (Staphylococcus aureus, UniProt P0A0K8); assay: Gyrase inhibitory assay; assay type: biochemical
# S. aureus gyrase, sequence (P0A0K8 whole entry): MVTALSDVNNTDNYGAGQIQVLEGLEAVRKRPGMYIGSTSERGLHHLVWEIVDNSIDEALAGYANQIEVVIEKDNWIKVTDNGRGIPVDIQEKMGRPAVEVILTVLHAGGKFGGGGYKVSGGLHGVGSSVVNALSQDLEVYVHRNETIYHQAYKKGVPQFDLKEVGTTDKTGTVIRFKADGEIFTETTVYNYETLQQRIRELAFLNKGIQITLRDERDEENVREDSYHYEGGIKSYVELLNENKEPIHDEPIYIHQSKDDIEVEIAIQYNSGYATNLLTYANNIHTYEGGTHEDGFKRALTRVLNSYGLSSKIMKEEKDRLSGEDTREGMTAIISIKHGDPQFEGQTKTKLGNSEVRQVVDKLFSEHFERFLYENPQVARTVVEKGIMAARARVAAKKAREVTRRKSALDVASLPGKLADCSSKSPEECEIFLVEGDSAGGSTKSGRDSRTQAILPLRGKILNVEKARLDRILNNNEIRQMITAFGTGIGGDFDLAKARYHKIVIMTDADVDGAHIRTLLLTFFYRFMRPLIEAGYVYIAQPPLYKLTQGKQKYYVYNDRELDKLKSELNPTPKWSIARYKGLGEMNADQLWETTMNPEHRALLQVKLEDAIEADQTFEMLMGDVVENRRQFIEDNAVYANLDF
# S. aureus gyrase, sequence (P20831 whole entry partner): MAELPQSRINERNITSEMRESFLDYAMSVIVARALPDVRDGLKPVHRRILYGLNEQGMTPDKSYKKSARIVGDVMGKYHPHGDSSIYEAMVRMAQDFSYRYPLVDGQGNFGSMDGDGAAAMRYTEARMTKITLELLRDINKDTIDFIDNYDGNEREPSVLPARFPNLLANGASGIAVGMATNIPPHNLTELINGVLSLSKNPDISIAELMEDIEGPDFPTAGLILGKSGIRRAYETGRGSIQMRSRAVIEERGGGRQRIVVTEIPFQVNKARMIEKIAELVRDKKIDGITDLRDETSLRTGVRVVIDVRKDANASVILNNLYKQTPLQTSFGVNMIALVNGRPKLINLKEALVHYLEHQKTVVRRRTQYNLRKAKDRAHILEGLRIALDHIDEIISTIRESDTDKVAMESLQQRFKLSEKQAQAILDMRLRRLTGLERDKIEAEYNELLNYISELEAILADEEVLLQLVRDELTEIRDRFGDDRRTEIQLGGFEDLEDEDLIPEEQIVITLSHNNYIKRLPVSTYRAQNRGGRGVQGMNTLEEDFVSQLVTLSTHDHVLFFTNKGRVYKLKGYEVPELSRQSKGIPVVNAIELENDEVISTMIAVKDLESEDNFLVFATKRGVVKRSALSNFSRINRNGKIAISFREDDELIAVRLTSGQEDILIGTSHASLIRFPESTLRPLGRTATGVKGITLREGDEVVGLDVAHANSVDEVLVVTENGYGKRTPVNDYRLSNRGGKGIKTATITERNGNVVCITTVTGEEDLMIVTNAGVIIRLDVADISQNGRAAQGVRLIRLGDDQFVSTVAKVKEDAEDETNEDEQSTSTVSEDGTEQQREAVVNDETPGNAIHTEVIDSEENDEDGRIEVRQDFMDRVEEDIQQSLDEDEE
# hERG channel = hERG channel (Homo sapiens, UniProt Q12809); assay: Inhibition evaluation on hERG K+ channel; assay type: cell-based
# hERG channel, sequence (Q12809 whole entry): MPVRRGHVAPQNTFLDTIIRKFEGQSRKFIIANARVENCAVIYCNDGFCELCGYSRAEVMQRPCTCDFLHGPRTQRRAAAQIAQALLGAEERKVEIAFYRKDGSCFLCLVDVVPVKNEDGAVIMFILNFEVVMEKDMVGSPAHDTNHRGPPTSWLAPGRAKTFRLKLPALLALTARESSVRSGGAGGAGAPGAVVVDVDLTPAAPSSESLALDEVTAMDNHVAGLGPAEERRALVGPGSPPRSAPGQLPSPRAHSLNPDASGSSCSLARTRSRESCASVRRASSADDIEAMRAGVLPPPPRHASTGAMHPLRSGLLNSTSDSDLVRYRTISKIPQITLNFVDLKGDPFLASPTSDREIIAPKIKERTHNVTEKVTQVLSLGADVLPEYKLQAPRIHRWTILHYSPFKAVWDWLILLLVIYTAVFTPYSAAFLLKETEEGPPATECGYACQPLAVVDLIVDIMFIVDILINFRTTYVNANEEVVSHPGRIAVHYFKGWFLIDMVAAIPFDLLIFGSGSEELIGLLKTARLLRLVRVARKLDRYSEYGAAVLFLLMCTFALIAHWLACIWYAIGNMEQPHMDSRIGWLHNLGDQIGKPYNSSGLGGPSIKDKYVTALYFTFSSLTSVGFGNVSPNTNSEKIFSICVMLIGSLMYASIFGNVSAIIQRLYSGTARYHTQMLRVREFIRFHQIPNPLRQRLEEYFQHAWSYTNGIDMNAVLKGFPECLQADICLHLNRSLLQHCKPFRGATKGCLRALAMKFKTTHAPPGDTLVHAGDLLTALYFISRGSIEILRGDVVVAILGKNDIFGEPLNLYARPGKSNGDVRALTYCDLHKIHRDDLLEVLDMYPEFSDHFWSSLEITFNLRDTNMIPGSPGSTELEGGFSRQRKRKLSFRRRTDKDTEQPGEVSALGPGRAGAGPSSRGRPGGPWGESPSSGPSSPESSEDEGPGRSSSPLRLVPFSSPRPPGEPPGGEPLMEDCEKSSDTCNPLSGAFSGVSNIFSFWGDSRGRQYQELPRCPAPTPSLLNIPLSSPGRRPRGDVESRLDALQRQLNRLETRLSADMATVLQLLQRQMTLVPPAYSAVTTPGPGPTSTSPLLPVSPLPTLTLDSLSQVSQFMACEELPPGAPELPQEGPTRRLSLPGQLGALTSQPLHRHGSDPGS
# [5] = system: methicillin-resistant S. aureus (ATCC43300); assay: Spontaneous drug resistance frequency; assay type: cell-based; details: MRSA ATCC43300, 4 × MIC
# E. faecium EFM19-1 = assay: Antibacterial spectrum; details: Enterococcus faecium, EFM191
# S. aureus MRSA15-2 = assay: Antibacterial spectrum; details: Staphylococcus aureus, MRSA152
# E. faecalis ATCC51575 = assay: Antibacterial spectrum; details: Enterococcus faecalis
# E. coli Topo IV = E. coli Topo IV (Escherichia coli, UniProt P20083); assay: Topo IV inhibitory assay; assay type: biochemical
# E. coli Topo IV, sequence (P20083 whole entry): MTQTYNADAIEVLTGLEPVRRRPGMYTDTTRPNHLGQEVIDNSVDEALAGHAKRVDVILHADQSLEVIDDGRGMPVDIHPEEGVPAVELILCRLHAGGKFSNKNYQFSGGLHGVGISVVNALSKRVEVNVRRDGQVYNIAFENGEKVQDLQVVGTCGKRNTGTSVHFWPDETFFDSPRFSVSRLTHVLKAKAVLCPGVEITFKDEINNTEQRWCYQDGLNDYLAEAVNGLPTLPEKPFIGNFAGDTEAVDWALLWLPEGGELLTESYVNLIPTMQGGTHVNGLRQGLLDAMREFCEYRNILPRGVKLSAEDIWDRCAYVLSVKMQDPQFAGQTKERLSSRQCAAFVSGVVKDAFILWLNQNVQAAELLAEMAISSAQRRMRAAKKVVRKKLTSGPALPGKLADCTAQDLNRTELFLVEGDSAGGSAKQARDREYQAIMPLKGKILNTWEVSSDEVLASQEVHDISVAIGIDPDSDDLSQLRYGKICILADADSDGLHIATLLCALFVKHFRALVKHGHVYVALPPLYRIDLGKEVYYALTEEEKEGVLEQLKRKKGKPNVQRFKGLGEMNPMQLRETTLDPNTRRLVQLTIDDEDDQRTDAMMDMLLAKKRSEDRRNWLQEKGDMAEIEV
# E. coli Topo IV, sequence (P0AFI2 whole entry partner): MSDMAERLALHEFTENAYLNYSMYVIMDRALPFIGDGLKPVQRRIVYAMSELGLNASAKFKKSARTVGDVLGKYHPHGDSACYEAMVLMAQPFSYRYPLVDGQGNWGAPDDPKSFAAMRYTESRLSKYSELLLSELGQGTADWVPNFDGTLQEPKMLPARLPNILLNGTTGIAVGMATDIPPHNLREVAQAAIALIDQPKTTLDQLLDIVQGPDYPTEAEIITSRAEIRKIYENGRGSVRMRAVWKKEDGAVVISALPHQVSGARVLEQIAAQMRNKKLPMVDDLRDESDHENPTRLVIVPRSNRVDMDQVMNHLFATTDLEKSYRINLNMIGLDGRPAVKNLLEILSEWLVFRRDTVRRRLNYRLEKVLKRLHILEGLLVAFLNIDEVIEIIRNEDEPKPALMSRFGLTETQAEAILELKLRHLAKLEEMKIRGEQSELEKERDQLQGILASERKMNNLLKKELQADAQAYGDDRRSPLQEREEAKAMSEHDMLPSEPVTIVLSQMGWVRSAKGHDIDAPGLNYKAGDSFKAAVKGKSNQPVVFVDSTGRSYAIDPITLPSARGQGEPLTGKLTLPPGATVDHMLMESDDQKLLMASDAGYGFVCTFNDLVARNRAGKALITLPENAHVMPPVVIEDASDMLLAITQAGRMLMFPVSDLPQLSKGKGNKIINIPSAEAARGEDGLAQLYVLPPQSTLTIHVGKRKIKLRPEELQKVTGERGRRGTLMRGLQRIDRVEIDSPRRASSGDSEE
# S. epidermidis MSSE15-3 = assay: Antibacterial spectrum; details: Staphylococcus epidermidis, MSSE153
# [6] = system: susceptible and resistant Gram-positive bacteria; assay: Antibacterial spectrum; assay type: cell-based, S. aureus, S. epidermidis, E. faecalis, E. faecium; details: read-out: MIC against susceptible and resistant Gram-positive bacteria
# S. aureus MRSA15-1 = assay: Antibacterial spectrum; details: Staphylococcus aureus, MRSA151
# E. coli (ATCC25922) = assay: Antibacterial assay; details: Escherichia coli, ATCC25922, read-out: MIC E. coli (ATCC25922)
# Cytotoxicity assay [7] = details: human, LO2 normal hepatocytes
# A. baumannii ATCC19606 = assay: Antibacterial spectrum; details: Acinetobacter baumannii
# S. aureus GyrB24 = S. aureus GyrB24 (Staphylococcus aureus, UniProt P0A0K8); assay: Surface plasmon resonance; assay type: binding
# S. aureus GyrB24, sequence (P0A0K8 2-220): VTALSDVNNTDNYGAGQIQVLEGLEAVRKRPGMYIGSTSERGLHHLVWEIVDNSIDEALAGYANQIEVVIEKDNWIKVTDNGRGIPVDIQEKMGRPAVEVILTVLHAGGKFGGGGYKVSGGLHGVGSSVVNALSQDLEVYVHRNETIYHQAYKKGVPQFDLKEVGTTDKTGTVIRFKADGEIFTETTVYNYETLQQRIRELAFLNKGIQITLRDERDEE
# MRSA (ATCC43300) = assay: Neutropenic murine thigh MRSA infection model; assay type: in vivo, ICR mice; details: 2.5 mg/kg iv, 24 h
# [8] = Mouse acute toxicity test; set-up: species or system ICR mice; details: both, ICR, in vivo
# Cytotoxicity assay [9] = details: human, HK2 renal tubular epithelial cells
# S. aureus VISA5836 = assay: Antibacterial spectrum; details: Staphylococcus aureus
# HepG2 cells = assay: Mitochondrial toxicity; details: HepG2 cells, 50–800 μmol/L
# S. aureus VISA5827 = assay: Antibacterial spectrum; details: Staphylococcus aureus
# S. aureus MSSA15-1 = assay: Antibacterial spectrum; details: Staphylococcus aureus, MSSA151
# [10] = system: methicillin-resistant S. aureus (ATCC43300); assay: Mouse model of sepsis induced by MRSA; assay type: in vivo, ICR mice; details: 10 mg/kg ig, MRSA ATCC43300, observed 7 days
# S. aureus ATCC43300 = assay: Antibacterial spectrum; details: Staphylococcus aureus
# Cytotoxicity assay [11] = details: human, HEK293 embryonic kidney cells
# E. coli gyrase = E. coli gyrase (Escherichia coli, UniProt P0AES6); assay: Gyrase inhibitory assay; assay type: biochemical
# S. aureus (ATCC29213) [12] = assay: Time-killing curves / killing kinetic studies; assay type: cell-based; details: 4, 8, and 16 × MIC
# S. epidermidis MRSE15-1 = assay: Antibacterial spectrum; details: Staphylococcus epidermidis, MRSE151
# E. faecalis ATCC51299 = assay: Antibacterial spectrum; details: Enterococcus faecalis
# S. epidermidis MRSE15-2 = assay: Antibacterial spectrum; details: Staphylococcus epidermidis, MRSE152
# [13] = both, beagle, dog, plasma, iv, 1 mg/kg
# [14] = both, beagle, dog, plasma, po, 1 mg/kg
structure (smiles),measurement,setting,value
"CO[C@H]1CN(c2ccc(C(C)(C)O)nn2)CC[C@H]1NC(=O)c1[nH]c(C)c(Cl)c1Cl [Compound 28, 3,4-Dichloro-N-((3S,4R)-1-(6-(2-hydroxypropan-2-yl)pyridazin-3-yl)-3-methoxypiperidin-4-yl)-5-methyl-1H-pyrrole-2-carboxamide]",mutagenic effects in Mini-Ames test,[1],did not show any mutagenic effects
same,MIC,S. aureus MSSA15-2,0.015 µg/mL
same,IC50,S. aureus Topo IV,1510 ± 460 nM
same,Cmax,[2]; [13],5510 ng/mL
same,MRT inf,[2]; [13],12.3 h
same,MRT last,[2]; [13],9.79 h
same,Tmax,[2]; [13],0.873 h
same,clearance,[2]; [13],0.33 mL/min/kg
same,half-life,[2]; [13],11.3 h
same,Cmax,[2]; [14],3750 ng/mL
same,MRT inf,[2]; [14],9.85 h
same,MRT last,[2]; [14],9.07 h
same,Tmax,[2]; [14],1.75 h
same,bioavailability,[2]; [14],66.8%
same,half-life,[2]; [14],8.53 h
same,AUC0–48,[2]; iv (1 mg/kg),"56,432.101 μg·h"
same,AUC0–∞,[2]; iv (1 mg/kg),"58,890.621 μg·h"
same,AUC0–48,[2]; po (1 mg/kg),"38,552.203 μg·h"
same,AUC0–∞,[2]; po (1 mg/kg),"39,362.651 μg·h"
same,spontaneous resistance frequency,S. aureus (ATCC29213) [3],less than 8 × 10^–12
same,MIC,P. aeruginosa ATCC27853,4 µg/mL
same,MIC,S. aureus (ATCC29213) [4],≤ 0.015 µg/mL
same,IC50,S. aureus gyrase,49 ± 5 nM
same,IC50,hERG channel,> 30000 nM
same,spontaneous resistance frequency,[5],< 4.3 × 10^–12
same,MIC,E. faecium EFM19-1,0.015 µg/mL
same,MIC,S. aureus MRSA15-2,0.015 µg/mL
same,MIC,E. faecalis ATCC51575,0.03 µg/mL
same,IC50,E. coli Topo IV,> 10000 nM
same,MIC,S. epidermidis MSSE15-3,0.015 µg/mL
same,MIC,[6],< 0.03 µg/mL
same,MIC,S. aureus MRSA15-1,0.015 µg/mL
same,MIC,E. coli (ATCC25922),1 µg/mL
same,IC50 at 48 h,Cytotoxicity assay [7],> 10000 nM
same,MIC,A. baumannii ATCC19606,8 µg/mL
same,Kd,S. aureus GyrB24,52 nM
same,reduction of colony-forming unit (CFU) in the thigh,MRSA (ATCC43300),3–4 log10
same,LD50 at 7 days,[8]; ip,> 300 mg/kg
same,LD50 at 7 days,[8]; iv,> 100 mg/kg
same,LD50 at 7 days,[8]; po,> 800 mg/kg
same,IC50 at 48 h,Cytotoxicity assay [9],> 10000 nM
same,MIC,S. aureus VISA5836,0.015 µg/mL
same,mitochondrial toxicity,HepG2 cells,much less toxicity
same,MIC,S. aureus VISA5827,0.015 µg/mL
same,MIC,S. aureus MSSA15-1,0.015 µg/mL
same,protective effect / survival in mouse model of sepsis,[10],survived
same,MIC,S. aureus ATCC43300,0.015 µg/mL
same,IC50 at 48 h,Cytotoxicity assay [11],> 10000 nM
same,IC50,E. coli gyrase,1480 ± 441 nM
same,time-kill curve,S. aureus (ATCC29213) [12],time-dependent bactericidal effect
same,MIC,S. epidermidis MRSE15-1,0.015 µg/mL
same,MIC,E. faecalis ATCC51299,0.015 µg/mL
same,MIC,S. epidermidis MRSE15-2,0.015 µg/mL
